A short description of data set [1]: Aqueous solubility of the drug. Format: physicochemical.
Data set [2] in a line: In vitro dissolution test (microcentrifuge, PBS pH 6.5). Conditions: PBS pH 6.5, 290 mOsm/kg, 37° C., 3000 μg/mL Drug 3 if all dissolved; Dispersion 4 before secondary drying; crystalline drug alone. It is filed as physicochemical. The method, then:
A sample of Dispersion 4 was evaluated before and after secondary drying in an in vitro dissolution test to determine the effect of drying on concentration enhancement. For this test, a sufficient amount of Dispersion 4 was added to microcentrifuge test tubes so that the concentration of Drug 3 would have been 3000 μg/mL had all of the drug had dissolved. The test was performed in duplicate. The tubes were placed in a 37° C. temperature-controlled chamber, and 1.8 mL PBS at pH 6.5 and 290 mOsm/kg was added to each tube. The samples were mixed using a vortex mixer for about 60 seconds. The samples were centrifuged at 13,000 G at 37° C. for 1 minute. The resulting supernatant solution was then sampled and diluted 1:6 (by volume) with methanol and then analyzed by high performance liquid chromatography (HPLC). The contents of each tube were mixed on the vortex mixer and allowed to stand undisturbed at 37° C. until the next sample was taken. Samples were collected at 4, 10, 20, 40, 90, and 1200 minutes. For comparison, crystalline Drug 3 alone was tested using the same procedures.
The concentrations of drug obtained in these samples were used to determine the maximum concentration of drug (MDC90) and the area under the concentration-versus-time curve (AUC90) during the initial 90 minutes.

Values after ≈ are worked out from the molar mass of the structure shown.

Molecule `O=C(N[C@@H](Cc1ccccc1)[C@H](O)C(=O)N1C[C@@H](O)[C@@H](O)C1)c1cc2cc(Cl)ccc2[nH]1` [Drug 1, 5-chloro-1H-indole-2-carboxylic acid [(1S)-benzyl-(2R)-hydroxy-3-((3R,4S)-dihydroxy-pyrrolidin-1-yl-)-3-oxypropyl]amide] came in with a solubility in data set [1] of approximately 80 µg/mL (≈ 175 µM).
In data set [1], `CCOC(=O)N1c2ccc(C(F)(F)F)cc2[C@@H](N(Cc2cc(C(F)(F)F)cc(C(F)(F)F)c2)C(=O)OC)C[C@H]1CC` [Drug 2, torcetrapib, reference compound] came in with a solubility of less than 0.1 µg/mL.
Take `C=CCNC(=O)[C@H]1N(C(=O)[C@@H](O)[C@H](Cc2ccccc2)NC(=O)c2cccc(O)c2C)CSC1(C)C` [Drug 3, (4R)—N-allyl-3-{(2S,3S)-2-hydroxy-3-[(3-hydroxy-2-methylbenzoyl)amino]-4-phenylbutanoyl}-5,5-dimethyl-1,3-thiazolidine-4-carboxamide]: the solubility in data set [1] is approximately 1600 µg/mL (≈ 3130 µM). In addition, in data set [2], the “AUC90 (area under the concentration-versus-time curve during the initial 90 minutes)” value was found to be 9200 µg·min/mL and the “MDC90 (maximum concentration of drug during the initial 90 minutes)” value came to 112 µg/mL.

Broadly, the solubility is the dissolved amount per volume that the medium holds.

The values above are taken from patent publication US8834929B2, “Drying of drug-containing particles” (Bend Research, Inc., priority 2006, dated 2014).
